How the values were obtained:
[1] = molecular target: T1, human enzyme NAMPT (full length) (Homo sapiens, UniProt P43490); test: NMN fluorescence biochemical assay (stimulation of NMN synthesis by NAMPT); settings: for EC50: NMN synthesis by purified human NAMPT (100 nM), concentration giving half-maximal activation, read-out: Enzymatic EC50; for Enzymatic Emax: fold change of maximal activation compared to DMSO
T1 construct: human enzyme NAMPT (full length)
Summary of the method: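 Full-length human NAMPT (100 nM) was preincubated 15 min at 37 °C with compound in 50 mM Tris-HCl pH 7.5, 10 mM MgCl2, 2 mM DTT, then reacted 1 h at 37 °C with 50 μM NAM, 100 μM PRPP, 4 mM ATP (stated solution concentrations). NMN was derivatised with acetophenone/KOH then formic acid and read at Ex/Em 382/445 nm; EC50 and Emax (fold over DMSO) reported.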

[2] = system: endogenous NAMPT in U2OS cells; test: Cellular NAD+ modulation assay (NAD/NADH-Glo, U2OS cells); format: cell-based; settings: Homo sapiens, 24 hours incubation with compound; for maximal fold induction: read-out: Cellular Emax
Summary of the method: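 NAD/NADH-Glo luminescence quantified NAD+ after acid treatment (60 °C, 15 min) and neutralization of DTAB lysates. Beforehand, U2OS cells seeded 16 h earlier received compound concentration series for 24 h at 37 °C. Values given as half-maximal activation concentration (EC50) and maximal fold change versus DMSO (Emax).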

T1 sequence (P43490 whole entry): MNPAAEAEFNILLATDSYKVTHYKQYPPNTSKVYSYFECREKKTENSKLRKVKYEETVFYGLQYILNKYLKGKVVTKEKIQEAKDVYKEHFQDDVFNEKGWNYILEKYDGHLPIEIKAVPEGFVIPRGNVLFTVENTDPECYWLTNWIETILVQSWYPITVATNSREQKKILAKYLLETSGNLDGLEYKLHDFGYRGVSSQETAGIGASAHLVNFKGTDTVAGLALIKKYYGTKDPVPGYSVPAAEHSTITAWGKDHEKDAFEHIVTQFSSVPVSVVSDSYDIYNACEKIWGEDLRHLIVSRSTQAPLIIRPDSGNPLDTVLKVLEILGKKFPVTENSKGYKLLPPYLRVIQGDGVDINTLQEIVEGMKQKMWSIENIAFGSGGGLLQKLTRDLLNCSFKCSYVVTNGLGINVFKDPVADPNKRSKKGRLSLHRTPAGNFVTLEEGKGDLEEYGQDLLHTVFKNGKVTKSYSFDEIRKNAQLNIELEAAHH

Row | SMILES | EC50 [1] [nM] | Enzymatic Emax [1] | EC50 [2] [nM] | maximal fold induction [2]
1 | O=C1c2ccccc2C(CC2=CCOCC2)N1Cc1ccc2[nH]c(=O)oc2c1 (stereo not shown) [Compound 225, 6-((1-((3,6-dihydro-2H-pyran-4-yl)methyl)-3-oxoisoindolin-2-yl)methyl)benzo[d]oxazol-2(3H)-one] | 500 to 5000 | A (A>3) | 500 to 5000 | > 1.5
2 | O=C1c2ccccc2C(Cc2nnc(Cl)cc2Cl)N1Cc1ccc2[nH]c(=O)oc2c1 (stereo not shown) [Compound 227, 6-((1-((4,6-dichloropyridazin-3-yl)methyl)-3-oxoisoindolin-2-yl)methyl)benzo[d]oxazol-2(3H)-one] | 500 to 5000 | A (A>3) | 500 to 5000 | > 1.5
3 | N#Cc1nccc(Cl)c1CC1c2ccccc2C(=O)N1Cc1ccc2[nH]nnc2c1 (stereo not shown) [Compound 228, 3-((2-((1H-benzo[d][1,2,3]triazol-5-yl)methyl)-3-oxoisoindolin-1-yl)methyl)-4-chloropicolinonitrile] | < 500 | B (3≥B>2) | < 500 | > 1.5
4 | Cc1ocnc1CC1c2ccccc2C(=O)N1Cc1ccc2[nH]c(=O)oc2c1 (stereo not shown) [Compound 231, 6-((1-((5-methyloxazol-4-yl)methyl)-3-oxoisoindolin-2-yl)methyl)benzo[d]oxazol-2(3H)-one] | ≥ 5000 | A (A>3) | 500 to 5000 | > 1.5
5 | Cn1cc(Cl)c(CC2c3ccccc3C(=O)N2Cc2ccc3[nH]c(=O)oc3c2)n1 (stereo not shown) [Compound 232, 6-((1-((4-chloro-1-methyl-1H-pyrazol-3-yl)methyl)-3-oxoisoindolin-2-yl)methyl)benzo[d]oxazol-2(3H)-one] | < 500 | A (A>3) | < 500 | > 1.5
6 | Cn1cccc(CC2c3ccccc3C(=O)N2Cc2ccc3[nH]c(=O)oc3c2)c1=O (stereo not shown) [Compound 234, 6-((1-((1-methyl-2-oxo-1,2-dihydropyridin-3-yl)methyl)-3-oxoisoindolin-2-yl)methyl) benzo[d]oxazol-2(3H)-one] | ≥ 5000 | A (A>3) | 500 to 5000 | > 1.5
7 | O=C1c2ccccc2C(Cc2ncccc2Br)N1Cc1ccc2[nH]ncc2c1 (stereo not shown) [Compound 240, 2-((1H-indazol-5-yl)methyl)-3-((3-bromopyridin-2-yl)methyl)isoindolin-1-one] | < 500 | B (3≥B>2) | < 500 | 1.2 to 1.5
8 | O=C1c2ccccc2C(Cc2ncccc2Br)N1Cc1ccc2[nH]c(=O)oc2n1 (stereo not shown) [Compound 241, 5-((1-((3-bromopyridin-2-yl)methyl)-3-oxoisoindolin-2-yl)methyl)oxazolo[5,4-b]pyridin-2(1H)-one] | 500 to 5000 | A (A>3) | 500 to 5000 | 1.2 to 1.5
9 | N#Cc1cccnc1CC1c2ccccc2C(=O)N1Cc1ccc2[nH]c(=O)oc2c1 (stereo not shown) [Compound 257, 2-((3-oxo-2-((2-oxo-2,3-dihydrobenzo[d]oxazol-6-yl)methyl)isoindolin-1-yl)methyl) nicotinonitrile] | 500 to 5000 | A (A>3) | < 500 | > 1.5
10 | O=C1NCC2(CC(CN3C(=O)c4ccccc4C3Cc3ncccc3Br)C2)O1 (stereo not shown) [Compound 270, 2-((1-((3-bromopyridin-2-yl)methyl)-3-oxoisoindolin-2-yl)methyl)-5-oxa-7-azaspiro[3.4]octan-6-one] | < 500 | A (A>3) | < 500 | 1.2 to 1.5
11 | O=C1c2ccccc2C(Cc2ncccc2Br)N1Cc1cc2nn[nH]c2cc1F (stereo not shown) [Compound 271, 3-((3-bromopyridin-2-yl)methyl)-2-((6-fluoro-1H-benzo[d][1,2,3]triazol-5-yl)methyl) isoindolin-1-one] | 500 to 5000 | A (A>3) | 500 to 5000 | > 1.5
12 | Cc1cccc2c1C(Cc1c(Cl)ccnc1C#N)N(Cc1ccc3[nH]c(=O)oc3c1)C2=O (stereo not shown) [Compound 272, 4-chloro-3-((7-methyl-3-oxo-2-((2-oxo-2,3-dihydrobenzo[d]oxazol-6-yl)methyl)isoindolin-1-yl)methyl)picolinonitrile] | 500 to 5000 | A (A>3) | < 500 | > 1.5
13 | CC1c2cc(F)ccc2C(=O)N1Cc1ccc2[nH]c(=O)oc2c1 (stereo not shown) [Compound 275, 6-((5-fluoro-3-methyl-1-oxoisoindolin-2-yl)methyl)benzo[d]oxazol-2(3H)-one] | ≥ 5000 | B (3≥B>2) | 500 to 5000 | > 1.5
